Measured values taken from US8455688B2, “HDAC inhibitors” (Lixte Biotechnology, Inc., priority 2007, dated 2013).
Converted amounts (≈) assume the structure as drawn. “Also recorded” adds a separate entry of the source. Read-outs that look alike come from different tables or passages of the source.

How the values were obtained:
C. albicans = experiment: Broth dilution antifungal susceptibility testing, C. albicans; assay type: cell-based, Candida albicans; details: Candida albicans, 50% reduction in turbidity, read-out: minimum inhibitory concentration (MIC)
Protocol: (§1) A total of 23 isolates were tested to include 3 Candida albicans, 3 Candida glabrata, 3 Cryptococcus neoformans, 3 Aspergillus fumigatus, 3 Rhizopus oryzae, 3, Fusarium solani, 3 Pseudallescheria boydii, and 2 […]. All isolates were clinical isolates submitted to the Fungus Testing Laboratory for evaluation. Antifungal susceptibility testing was accomplished according to the methods outlined in the National Committee for Clinical Laboratory Standards, M-27A2, Reference Method for Broth Dilution Antifungal Susceptibility Testing of Yeasts; Approved Standard, and M38-A “Reference Method for Broth Dilution Antifungal Susceptibility Testing of Conidium-Forming Filamentous Fungi; Approved Standard”. This includes testing in RPMI-1640 with glutamine and without bicarbonate, an inoculum size of 0.5-2.5×10^3 for yeasts or […] for moulds, and incubation at 35° C. for 24 and 48 hours. […] Drug concentrations were 0.125-64 μg/ml. A 10 mg portion of each powder was weighed out and added to 1 ml of 100% DMSO for compound 205. The resulting concentration of […] was diluted to a working concentration of 6400 μg/ml for compound 205 in 100% DMSO. All subsequent dilutions were also made using the respective diluents. Final testing concentrations ranged from 0.125-64 μg/ml. The NCCLS recommended medium RPMI-1640 (Hardy Diagnostics, Santa Monica, Calif.) was utilized as the test medium. All isolates in this study were clinical isolates received in the Fungus Testing Laboratory for standard antifungal susceptibility testing and/or identification. Isolates, which were not sent for identification, were confirmed to assure testing integrity. A total of 23 were tested to include 3 Candida albicans, 3 Candida glabrata, 3 Cryptococcus neoformans, 3 Aspergillus fumigatus, 3 Rhizopus oryzae, 3, Fusarium solani, 3 Pseudallescheria boydii, and 2 […]. Minimum inhibitory concentrations (MIC) were determined at the first 24-hour interval where growth could be determined in the drug-free control tube.

F. solani = experiment: Broth dilution antifungal susceptibility testing, F. solani; assay type: cell-based; details: Fusarium solani, 80% inhibition, read-out: minimum inhibitory concentration (MIC)
Protocol: as §1

U87 GBM xenografts = experiment: Inhibition of U87 GBM xenografts; details: in vivo
cell line U-87 = experiment: Activity against the cell line U-87; assay type: cell-based, human; details: potency on an equimolar basis
A. fumigatus = experiment: Broth dilution antifungal susceptibility testing, A. fumigatus; assay type: cell-based, Aspergillus fumigatus; details: Aspergillus fumigatus, 80% inhibition, read-out: minimum inhibitory concentration (MIC)
Protocol: as §1

GBM xenograft = GBM xenograft tumor volume in SCID mice; assay type: in vivo; details: for inhibition of GBM xenograft tumor volume: tumor cells implanted subcutaneously, 0, 7, 14, 21 and 28 days
C. neoformans = experiment: Broth dilution antifungal susceptibility testing, C. neoformans; assay type: cell-based; details: Cryptococcus neoformans, 50% reduction in turbidity, read-out: minimum inhibitory concentration (MIC)
Protocol: as §1

S. apiospermum = experiment: Broth dilution antifungal susceptibility testing, S. apiospermum; assay type: cell-based, Pseudallescheria boydii; details: Scedosporium apiospermum, 80% inhibition, read-out: minimum inhibitory concentration (MIC)
Protocol: as §1

R. arrhizus = experiment: Broth dilution antifungal susceptibility testing, R. arrhizus; assay type: cell-based, Rhizopus oryzae; details: Rhizopus arrhizus, 80% inhibition, read-out: minimum inhibitory concentration (MIC)
Protocol: as §1

CP Control = experiment: Broth dilution antifungal susceptibility testing, CP Control; assay type: cell-based; details: read-out: minimum inhibitory concentration (MIC)
Protocol: as §1

T. rubrum = experiment: Broth dilution antifungal susceptibility testing, T. rubrum; assay type: cell-based, Trichophyton rubrum; details: Trichophyton rubrum, 80% inhibition, read-out: minimum inhibitory concentration (MIC)
Protocol: as §1

C. glabrata = experiment: Broth dilution antifungal susceptibility testing, C. glabrata; assay type: cell-based, Candida glabrata; details: Nakaseomyces glabratus, 50% reduction in turbidity, read-out: minimum inhibitory concentration (MIC)
Protocol: as §1

[1] = 24 h, isolate 07-3006, 24 hours
[2] = 24 h, isolate 07-3011, 24 hours
[3] = 24 h, isolate 07-3012, 24 hours
[4] = 48 h, isolate 07-3006, 48 hours
[5] = 48 h, isolate 07-3011, 48 hours
[6] = 48 h, isolate 07-3012, 48 hours
[7] = 24 h, isolate 07-1399, 24 hours
[8] = 24 h, isolate 07-1755, 24 hours
[9] = 24 h, isolate 07-1867, 24 hours
[10] = 48 h, isolate 07-1399, 48 hours
[11] = 48 h, isolate 07-1755, 48 hours
[12] = 48 h, isolate 07-1867, 48 hours
[13] = 24 h, isolate 06-4126, 24 hours
[14] = 24 h, isolate 07-2039, 24 hours
[15] = 48 h, isolate 06-4126, 48 hours
[16] = 48 h, isolate 07-2039, 48 hours
[17] = 24 h, isolate 07-2665, 24 hours
[18] = 24 h, isolate 07-2737, 24 hours
[19] = 24 h, isolate 07-2829, 24 hours
[20] = 48 h, isolate 07-2665, 48 hours
[21] = 48 h, isolate 07-2737, 48 hours
[22] = 48 h, isolate 07-2829, 48 hours
[23] = 24 h, isolate 07-1333, 24 hours
[24] = 24 h, isolate 07-1502, 24 hours
[25] = 24 h, isolate 07-1601, 24 hours
[26] = 48 h, isolate 07-1333, 48 hours
[27] = 48 h, isolate 07-1502, 48 hours
[28] = 48 h, isolate 07-1601, 48 hours
[29] = 24 h, isolate 07-1870, 24 hours
[30] = 24 h, isolate 07-2044, 24 hours
[31] = 24 h, isolate 07-2078, 24 hours
[32] = 48 h, isolate 07-1870, 48 hours
[33] = 48 h, isolate 07-2044, 48 hours
[34] = 48 h, isolate 07-2078, 48 hours
[35] = 24 h, isolate 07-1743, 24 hours
[36] = 24 h, isolate 07-2055, 24 hours
[37] = 48 h, isolate 07-1743, 48 hours
[38] = 48 h, isolate 07-2055, 48 hours
[39] = 24 h, isolate 07-2964, 24 hours
[40] = 24 h, isolate 07-2965, 24 hours
[41] = 24 h, isolate 07-3013, 24 hours
[42] = 48 h, isolate 07-2964, 48 hours
[43] = 48 h, isolate 07-2965, 48 hours
[44] = 48 h, isolate 07-3013, 48 hours

## CN(C)c1ccc(NC(=O)CCCCCNC(=O)c2ccccc2S)cc1 [Compound 206, 2-Mercapto-N-[5-(4-dimethylamino-3-yl-carbamoyl)pentyl]benzamide]
C. albicans; [1]
  MIC: 64 µg/mL (≈ 166 µM)
C. albicans; [2]
  MIC: 64 µg/mL (≈ 166 µM)
C. albicans; [3]
  MIC: > 64 µg/mL
C. albicans; [4]
  MIC: > 64 µg/mL
C. albicans; [5]
  MIC: > 64 µg/mL
C. albicans; [6]
  MIC: > 64 µg/mL
F. solani; [7]
  MIC: > 64 µg/mL
F. solani; [8]
  MIC: > 64 µg/mL
F. solani; [9]
  MIC: 64 µg/mL (≈ 166 µM)
F. solani; [10]
  MIC: > 64 µg/mL
F. solani; [11]
  MIC: > 64 µg/mL
F. solani; [12]
  MIC: > 64 µg/mL
U87 GBM xenografts
  inhibition of U87 GBM xenografts compared to control: significant inhibition
Cell line U-87
  activity against the cell line U-87: most potent on an equimolar basis
A. fumigatus; 24 h, isolate 05-388, 24 hours
  MIC: 16 µg/mL (≈ 41.5 µM)
A. fumigatus; [13]
  MIC: 8 µg/mL (≈ 20.8 µM)
A. fumigatus; [14]
  MIC: 8 µg/mL (≈ 20.8 µM)
A. fumigatus; 48 h, isolate 05-388, 48 hours
  MIC: > 64 µg/mL
A. fumigatus; [15]
  MIC: 64 µg/mL (≈ 166 µM)
A. fumigatus; [16]
  MIC: > 64 µg/mL
GBM xenograft
  inhibition of GBM xenograft tumor volume: inhibited the growth of GBM xenograft tumor volume
C. neoformans; [17]
  MIC: 16 µg/mL (≈ 41.5 µM)
C. neoformans; [18]
  MIC: 16 µg/mL (≈ 41.5 µM)
C. neoformans; [19]
  MIC: 64 µg/mL (≈ 166 µM)
C. neoformans; [20]
  MIC: 32 µg/mL (≈ 83 µM)
C. neoformans; [21]
  MIC: 32 µg/mL (≈ 83 µM)
C. neoformans; [22]
  MIC: 64 µg/mL (≈ 166 µM)
S. apiospermum; [23]
  MIC: 1 µg/mL (≈ 2.59 µM)
S. apiospermum; [24]
  MIC: 8 µg/mL (≈ 20.8 µM)
S. apiospermum; [25]
  MIC: 2 µg/mL (≈ 5.19 µM)
S. apiospermum; [26]
  MIC: 2 µg/mL (≈ 5.19 µM)
S. apiospermum; [27]
  MIC: 16 µg/mL (≈ 41.5 µM)
S. apiospermum; [28]
  MIC: 2 µg/mL (≈ 5.19 µM)
R. arrhizus; [29]
  MIC: 32 µg/mL (≈ 83 µM)
R. arrhizus; [30]
  MIC: 32 µg/mL (≈ 83 µM)
R. arrhizus; [31]
  MIC: > 64 µg/mL
R. arrhizus; [32]
  MIC: 64 µg/mL (≈ 166 µM)
R. arrhizus; [33]
  MIC: 64 µg/mL (≈ 166 µM)
R. arrhizus; [34]
  MIC: > 64 µg/mL
CP Control; 24 hours
  MIC: 8 µg/mL (≈ 20.8 µM)
CP Control; 48 hours
  MIC: 64 µg/mL (≈ 166 µM)
T. rubrum; [35]
  MIC: 0.25 µg/mL (≈ 0.648 µM)
T. rubrum; [36]
  MIC: 0.25 µg/mL (≈ 0.648 µM)
T. rubrum; [37]
  MIC: 0.25 µg/mL (≈ 0.648 µM)
T. rubrum; [38]
  MIC: 0.25 µg/mL (≈ 0.648 µM)
C. glabrata; [39]
  MIC: 32 µg/mL (≈ 83 µM)
C. glabrata; [40]
  MIC: 32 µg/mL (≈ 83 µM)
C. glabrata; [41]
  MIC: 32 µg/mL (≈ 83 µM)
C. glabrata; [42]
  MIC: > 64 µg/mL
C. glabrata; [43]
  MIC: > 64 µg/mL
C. glabrata; [44]
  MIC: > 64 µg/mL

## O=C(CCCCCNC(=O)c1ccccc1S)Nc1cccnc1 [Compound 205, 2-Mercapto-N-[5-(pyridin-3-ylcarbamoyl)pentyl]benzamide]
C. albicans; [1]
  MIC: 32 µg/mL (≈ 93.2 µM)
C. albicans; [2]
  MIC: 32 µg/mL (≈ 93.2 µM)
C. albicans; [3]
  MIC: 32 µg/mL (≈ 93.2 µM)
C. albicans; [4]
  MIC: 64 µg/mL (≈ 186 µM)
C. albicans; [5]
  MIC: > 64 µg/mL
C. albicans; [6]
  MIC: 64 µg/mL (≈ 186 µM)
F. solani; [7]
  MIC: 64 µg/mL (≈ 186 µM)
F. solani; [8]
  MIC: > 64 µg/mL
F. solani; [9]
  MIC: 32 µg/mL (≈ 93.2 µM)
F. solani; [10]
  MIC: > 64 µg/mL
F. solani; [11]
  MIC: > 64 µg/mL
F. solani; [12]
  MIC: 64 µg/mL (≈ 186 µM)
U87 GBM xenografts
  inhibition of U87 GBM xenografts compared to control: significant inhibition
Cell line U-87
  activity against the cell line U-87: most potent on an equimolar basis
A. fumigatus; 24 h, isolate 05-388, 24 hours
  MIC: 16 µg/mL (≈ 46.6 µM)
A. fumigatus; [13]
  MIC: 16 µg/mL (≈ 46.6 µM)
A. fumigatus; [14]
  MIC: 8 µg/mL (≈ 23.3 µM)
A. fumigatus; 48 h, isolate 05-388, 48 hours
  MIC: > 64 µg/mL
A. fumigatus; [15]
  MIC: > 64 µg/mL
A. fumigatus; [16]
  MIC: > 64 µg/mL
GBM xenograft; GBM xenograft, subcutaneous
  activity relative to an equimolar dose of SAHA: more active than, an equimolar dose of SAHA
GBM xenograft
  inhibition of GBM xenograft tumor volume: inhibited the growth of GBM xenograft tumor volume; also recorded: active
C. neoformans; [17]
  MIC: 32 µg/mL (≈ 93.2 µM)
C. neoformans; [18]
  MIC: 32 µg/mL (≈ 93.2 µM)
C. neoformans; [19]
  MIC: 32 µg/mL (≈ 93.2 µM)
C. neoformans; [20]
  MIC: 32 µg/mL (≈ 93.2 µM)
C. neoformans; [21]
  MIC: 32 µg/mL (≈ 93.2 µM)
C. neoformans; [22]
  MIC: 32 µg/mL (≈ 93.2 µM)
S. apiospermum; [23]
  MIC: 8 µg/mL (≈ 23.3 µM)
S. apiospermum; [24]
  MIC: 32 µg/mL (≈ 93.2 µM)
S. apiospermum; [25]
  MIC: 2 µg/mL (≈ 5.82 µM)
S. apiospermum; [26]
  MIC: 16 µg/mL (≈ 46.6 µM)
S. apiospermum; [27]
  MIC: 64 µg/mL (≈ 186 µM)
S. apiospermum; [28]
  MIC: 4 µg/mL (≈ 11.6 µM)
R. arrhizus; [29]
  MIC: > 64 µg/mL
R. arrhizus; [30]
  MIC: 64 µg/mL (≈ 186 µM)
R. arrhizus; [31]
  MIC: 64 µg/mL (≈ 186 µM)
R. arrhizus; [32]
  MIC: > 64 µg/mL
R. arrhizus; [33]
  MIC: 64 µg/mL (≈ 186 µM)
R. arrhizus; [34]
  MIC: > 64 µg/mL
CP Control; 24 hours
  MIC: 32 µg/mL (≈ 93.2 µM)
CP Control; 48 hours
  MIC: 32 µg/mL (≈ 93.2 µM)
T. rubrum; [35]
  MIC: 16 µg/mL (≈ 46.6 µM)
T. rubrum; [36]
  MIC: 8 µg/mL (≈ 23.3 µM)
T. rubrum; [37]
  MIC: 32 µg/mL (≈ 93.2 µM)
T. rubrum; [38]
  MIC: 16 µg/mL (≈ 46.6 µM)
C. glabrata; [39]
  MIC: 32 µg/mL (≈ 93.2 µM)
C. glabrata; [40]
  MIC: 32 µg/mL (≈ 93.2 µM)
C. glabrata; [41]
  MIC: 32 µg/mL (≈ 93.2 µM)
C. glabrata; [42]
  MIC: 64 µg/mL (≈ 186 µM)
C. glabrata; [43]
  MIC: 64 µg/mL (≈ 186 µM)
C. glabrata; [44]
  MIC: 64 µg/mL (≈ 186 µM)
